Measured values reported in PubChem BioAssay AID330 (DTP/NCI, 2004).
Toxic doses and inconclusive results are not listed. The calls were made as follows: active = survival T/C of 150% or more; inactive = T/C below 125% in these data.

Tested on: P388 leukemia ip, CD2F1 mice, survival T/C
Experiment: NCI In Vivo Anticancer Drug Screen. Data for tumor model P388 Leukemia (intraperitoneal) in CD2F1 (CDF1) mice
Conditions: endpoint: median survival time, higher = longer survival
In short: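 Mice carrying the transplanted tumor received test compound or vehicle. Survival was recorded in each group, and the value is the treated-group measurement divided by that of the vehicle-treated control group.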

[1] = dose: 30.0 mg/kg/injection, schedule: Q01DX005 (ip), vehicle: Klucel (hydroxypropylcellulose) (HPC)
[2] = dose: 60.0 mg/kg/injection, schedule: Q01DX005 (ip), vehicle: Klucel (hydroxypropylcellulose) (HPC)
[3] = dose: 100.0 mg/kg/injection, schedule: Q01DX009 (ip), vehicle: saline with Tween-80
[4] = dose: 200.0 mg/kg/injection, schedule: Q01DX009 (ip), vehicle: saline with Tween-80
[5] = dose: 400.0 mg/kg/injection, schedule: Q01DX009 (ip), vehicle: saline with Tween-80
[6] = dose: 120.0 mg/kg/injection, schedule: Q01DX005 (ip), vehicle: Klucel (hydroxypropylcellulose) (HPC)
[7] = dose: 240.0 mg/kg/injection, schedule: Q01DX005 (ip), vehicle: Klucel (hydroxypropylcellulose) (HPC)
[8] = dose: 60.0 mg/kg/injection, schedule: Q01DX005 (ip), vehicle: saline with Tween-80
[9] = dose: 120.0 mg/kg/injection, schedule: Q01DX005 (ip), vehicle: saline with Tween-80
[10] = dose: 100.0 mg/kg/injection, schedule: Q04DX003 (ip), vehicle: saline with Tween-80
[11] = dose: 200.0 mg/kg/injection, schedule: Q04DX003 (ip), vehicle: saline with Tween-80
[12] = dose: 400.0 mg/kg/injection, schedule: Q04DX003 (ip), vehicle: saline with Tween-80
[13] = dose: 25.0 mg/kg/injection, schedule: Q04DX003 (ip), vehicle: Klucel (hydroxypropylcellulose) (HPC)
[14] = dose: 50.0 mg/kg/injection, schedule: Q04DX003 (ip), vehicle: Klucel (hydroxypropylcellulose) (HPC)
[15] = dose: 100.0 mg/kg/injection, schedule: Q04DX003 (ip), vehicle: Klucel (hydroxypropylcellulose) (HPC)
[16] = dose: 240.0 mg/kg/injection, schedule: Q01DX005 (ip), vehicle: saline with Tween-80
[17] = dose: 50.0 mg/kg/injection, schedule: Q01DX005 (ip), vehicle: Klucel (hydroxypropylcellulose) (HPC)
[18] = dose: 100.0 mg/kg/injection, schedule: Q01DX005 (ip), vehicle: Klucel (hydroxypropylcellulose) (HPC)
[19] = dose: 200.0 mg/kg/injection, schedule: Q01DX005 (ip), vehicle: Klucel (hydroxypropylcellulose) (HPC)

Measured: T/C

CC(=O)OC1CC2C(C)(C)OC(=O)C=CC2(C)C2CCC3(C)C(c4ccoc4)C(=O)C4OC43C12C (stereo unspecified)
inactive: dose: 7.5 mg/kg/injection, schedule: Q01DX005 (ip), vehicle: Klucel (hydroxypropylcellulose) (HPC) 88 % of control | dose: 15.0 mg/kg/injection, schedule: Q01DX005 (ip), vehicle: Klucel (hydroxypropylcellulose) (HPC) 93 % of control | [1] 95 % of control | [2] 93 % of control

Nc1nc(N)nc(N)n1
inactive: [3] 106 % of control | [4] 107 % of control | [5] 99 % of control | dose: 800.0 mg/kg/injection, schedule: Q01DX009 (ip), vehicle: saline with Tween-80 96 % of control

C[N+]1=C2CCCCCC2=C(N)CC1
inactive: dose: 3.13 mg/kg/injection, schedule: Q04DX003 (ip), vehicle: saline 100 % of control | dose: 6.25 mg/kg/injection, schedule: Q04DX003 (ip), vehicle: saline 104 % of control | dose: 12.5 mg/kg/injection, schedule: Q04DX003 (ip), vehicle: saline 100 % of control

Cn1c2nc(-[n+]3ccc(Cc4ccccc4)cc3)nc-2c([O-])n(C)c1=O
inactive: dose: 100.0 mg/kg/injection, schedule: Q04DX002 (ip), vehicle: saline 100 % of control | dose: 200.0 mg/kg/injection, schedule: Q04DX002 (ip), vehicle: saline 99 % of control | dose: 400.0 mg/kg/injection, schedule: Q04DX002 (ip), vehicle: saline 95 % of control

O=C1CSC(c2ccco2)N1c1nncs1 (stereo unspecified)
inactive: [1] 100 % of control | [2] 100 % of control | [6] 103 % of control | [7] 108 % of control

COC(=O)c1nc(N)nc(C(=O)OC)c1C(=O)c1cc(Cl)ccc1Cl
inactive: [8] 100 % of control | [9] 100 % of control

CC1(C)CCC2=C1CC[C@H]1[C@H]2CCC2=CC(=O)CC[C@@]21C
inactive: [3] 90 % of control | [10] 110 % of control | [4] 100 % of control | [11] 105 % of control | [12] 115 % of control

NC(=S)N/N=C1/C(=O)N(c2ccccc2)C(=O)C1C(=O)Nc1ccccc1 (stereo unspecified)
inactive: dose: 100.0 mg/kg/injection, schedule: Q01DX001 (ip), vehicle: saline with Tween-80 100 % of control | dose: 200.0 mg/kg/injection, schedule: Q01DX001 (ip), vehicle: saline with Tween-80 106 % of control | dose: 400.0 mg/kg/injection, schedule: Q01DX001 (ip), vehicle: saline with Tween-80 98 % of control

CCOC(=O)C(NC(C)=O)(C(=O)OCC)c1ccc(Cl)cn1
inactive: dose: 100.0 mg/kg/injection, schedule: Q04DX003 (ip), vehicle: saline 103 % of control | dose: 200.0 mg/kg/injection, schedule: Q04DX003 (ip), vehicle: saline 100 % of control | dose: 400.0 mg/kg/injection, schedule: Q04DX003 (ip), vehicle: saline 95 % of control

COC(=O)CCC1=C(C)c2cc3[n-]c(cc4nc(cc5[n-]c(cc1n2)c(CCC(=O)OC)c5C)C=C4C)cc3C.[Ni+2]
inactive: [3] 90 % of control | [4] 90 % of control | [5] 86 % of control

CC[n+]1cccc2ccccc21
inactive: [10] 101 % of control | [11] 94 % of control

COc1cc2c(cc1O)C(=O)CCC(C(=O)O)=C2
inactive: [3] 92 % of control

CSc1nc(C)cc(N)n1
inactive: dose: 12.5 mg/kg/injection, schedule: Q04DX003 (ip), vehicle: Klucel (hydroxypropylcellulose) (HPC) 115 % of control | [13] 99 % of control | [14] 99 % of control | [15] 103 % of control

CCc1ccc(NS(=O)(=O)c2ccc(F)cc2)cc1
inactive: [8] 104 % of control | [9] 104 % of control | [16] 96 % of control

Cc1ccc(S(=O)(=O)N(Cl)Cl)cc1
inactive: dose: 6.25 mg/kg/injection, schedule: Q01DX009 (ip), vehicle: Klucel (hydroxypropylcellulose) (HPC) 111 % of control | dose: 12.5 mg/kg/injection, schedule: Q01DX009 (ip), vehicle: Klucel (hydroxypropylcellulose) (HPC) 99 % of control | dose: 25.0 mg/kg/injection, schedule: Q01DX009 (ip), vehicle: Klucel (hydroxypropylcellulose) (HPC) 108 % of control

CC(C)(c1cc(Cl)c(OCCO)c(Cl)c1)c1cc(Cl)c(OCCO)c(Cl)c1
inactive: [10] 100 % of control | [11] 100 % of control | [12] 95 % of control

CC1(C)N=C(N)N=C(N)N1c1ccc(OCC(=O)N2CCOCC2)c(Cl)c1
inactive: dose: 25.0 mg/kg/injection, schedule: Q01DX009 (ip), vehicle: saline 109 % of control | dose: 50.0 mg/kg/injection, schedule: Q01DX009 (ip), vehicle: saline 116 % of control | dose: 100.0 mg/kg/injection, schedule: Q01DX009 (ip), vehicle: saline 107 % of control | dose: 100.0 mg/kg/injection, schedule: Q04DX003 (ip), vehicle: saline sonified 113 % of control

CC(=O)OC1CC(O)C23COC(O)C1C2CC(O)C1(C)C3C(=O)CC2(C)C(c3ccoc3)CC3OC321 (stereo unspecified)
inactive: dose: 0.25 mg/kg/injection, schedule: Q01DX009 (ip), vehicle: Klucel (hydroxypropylcellulose) (HPC) 103 % of control | dose: 0.5 mg/kg/injection, schedule: Q01DX009 (ip), vehicle: Klucel (hydroxypropylcellulose) (HPC) 99 % of control | dose: 1.0 mg/kg/injection, schedule: Q01DX009 (ip), vehicle: Klucel (hydroxypropylcellulose) (HPC) 111 % of control | dose: 2.0 mg/kg/injection, schedule: Q01DX009 (ip), vehicle: Klucel (hydroxypropylcellulose) (HPC) 90 % of control

CN(CCCCCl)C(=O)Oc1ccccc1
inactive: dose: 50.0 mg/kg/injection, schedule: Q01DX009 (ip), vehicle: Klucel (hydroxypropylcellulose) (HPC) 102 % of control | dose: 100.0 mg/kg/injection, schedule: Q01DX009 (ip), vehicle: Klucel (hydroxypropylcellulose) (HPC) 106 % of control | dose: 200.0 mg/kg/injection, schedule: Q01DX009 (ip), vehicle: Klucel (hydroxypropylcellulose) (HPC) 99 % of control

C=CCSC(=NC#N)SC
inactive: dose: 3.12 mg/kg/injection, schedule: Q01DX005 (ip), vehicle: Klucel (hydroxypropylcellulose) (HPC) 101 % of control | dose: 6.25 mg/kg/injection, schedule: Q01DX005 (ip), vehicle: Klucel (hydroxypropylcellulose) (HPC) 101 % of control | dose: 12.5 mg/kg/injection, schedule: Q01DX005 (ip), vehicle: Klucel (hydroxypropylcellulose) (HPC) 107 % of control

O=C(NC(Cc1ccccc1)C(=O)O)C(Cl)Cl (stereo unspecified)
inactive: [17] 91 % of control | [18] 100 % of control | [19] 100 % of control

CC1NC(=O)NC(=O)C1=S (stereo unspecified)
inactive: [17] 112 % of control | [18] 111 % of control | [19] 113 % of control

CCN1C(NN)=NS(=O)(=O)c2ccccc21
inactive: [8] 103 % of control | [9] 106 % of control | [16] 94 % of control

CC(=O)Nc1cc2cc(NC=C(C#N)C#N)ccc2oc1=O
inactive: dose: 60.0 mg/kg/injection, schedule: Q01DX005 (ip), vehicle: Klucel + Tween-80 96 % of control | dose: 120.0 mg/kg/injection, schedule: Q01DX005 (ip), vehicle: Klucel + Tween-80 92 % of control

O=C1CSC(c2ccco2)N1CCN1C(=O)CSC1c1ccco1 (stereo unspecified)
inactive: dose: 100.0 mg/kg/injection, schedule: Q04DX002 (ip), vehicle: saline with Tween-80 100 % of control | dose: 200.0 mg/kg/injection, schedule: Q04DX002 (ip), vehicle: saline with Tween-80 98 % of control | dose: 400.0 mg/kg/injection, schedule: Q04DX002 (ip), vehicle: saline with Tween-80 91 % of control

O=[n+]1c2c(n([O-])c3cc(Cl)c(Cl)cc31)CCC2
inactive: [8] 95 % of control | [9] 95 % of control

O=C1N2CCSC2=NC1(c1ccccc1)c1ccccc1
inactive: [13] 100 % of control | [14] 100 % of control | [15] 93 % of control | dose: 200.0 mg/kg/injection, schedule: Q04DX003 (ip), vehicle: Klucel (hydroxypropylcellulose) (HPC) 102 % of control | dose: 400.0 mg/kg/injection, schedule: Q04DX003 (ip), vehicle: Klucel (hydroxypropylcellulose) (HPC) 100 % of control

O=C1CC(C2OCOC3COCOC32)CC(=O)N1 (stereo unspecified)
inactive: [2] 111 % of control | [6] 109 % of control | [7] 100 % of control

COc1ccc(C2(c3ccc(OC)cc3)ON(C(c3ccccc3)c3ccccc3)C2=O)cc1
inactive: [8] 95 % of control | [9] 91 % of control | [16] 89 % of control
